{
  "source": "patent US20220088278A1",
  "about": "“Covered Stent For Local Drug Delivery” (BIOTRONIK AG, priority 2019, published 2022)",
  "origin": "cited, not measured here",
  "system": "main bile duct of pancreatic cancer patients",
  "details": "thirty-six pancreatic cancer patients",
  "data": [
    {"molecule": "CC(=O)O[C@H]1C(=O)[C@@]2(C)[C@H]([C@H](OC(=O)c3ccccc3)[C@]3(O)C[C@H](OC(=O)[C@H](O)[C@@H](NC(=O)c4ccccc4)c4ccccc4)C(C)=C1C3(C)C)[C@]1(OC(C)=O)CO[C@@H]1C[C@@H]2O", "note": "[paclitaxel]", "values": [
      {"measurement": "duct patency duration versus covered stent without drug", "result": "did not significantly differ"}
    ]}
  ]
}
